Source: paper PMC7157554, “Anti-Trypanosomal Proteasome Inhibitors Cure Hemolymphatic and Meningoencephalic Murine Infection Models of African Trypanosomiasis” (Tropical Medicine and Infectious Disease, 2020)
Where two headings read alike, the source gives them in different places.

Legend:
T. brucei PSMB4^WT = assay: Growth inhibition of T. brucei expressing wild-type 20S proteasome β4 subunit; format: cell-based; conditions: Trypanosoma brucei, read-out: T. brucei PSMB4^WT EC50
Protocol: (§1) For determination of 50% growth inhibition, all compounds were dissolved in DMSO, and 200 nL of threefold serially diluted compounds were added into solid-bottom 384-well white plates (Greiner Bio-One, Kremsmunster, Austria) by an Echo 555 acoustic liquid-handling system. Forty microliters of 10^4 cells/mL of T. b. brucei parasites was added into each well, and the plates were incubated in a 5% CO2 incubator at 37 °C for 48 h. Viability of parasites were determined by measuring intracellular ATP levels, using CellTiter-Glo (CTG) luminescent cell viability reagent (Promega, Madison, Wisconsin WI, USA). The EC50 values were determined by using GraphPad Prism software. Growth inhibition assays for all clinical isolates were carried out as described earlier. All experiments had two technical replicates and three biological replicates. Appropriate statistical tests were used for evaluating significance, and mean ± SEM is represented in the tables.

T. brucei PSMB4^F24L = assay: Growth inhibition of T. brucei expressing F24L mutant 20S proteasome β4 subunit; format: cell-based, Trypanosoma brucei
Protocol: as §1

T. b. rhodesiense = assay: Growth inhibition of T. b. rhodesiense strains; format: cell-based; conditions: Trypanosoma brucei, mean ± SD
T. b. brucei = assay: Growth inhibition of T. b. brucei strains BS221, BS221 (P2 KO), STIB950; format: cell-based; conditions: Trypanosoma brucei, mean ± SD
Protocol: The T. b. brucei strain Lister 427 (bloodstream form) parasites were continuously grown in complete HMI-9 medium supplemented with 10% Serum Plus and 10% heat-inactivated fetal bovine serum (FBS). All other parasite strains were cultured as described elsewhere.
as §1, with “Appropriate statistical tests were used for evaluating significance, and mean ± SEM is represented in the tables.” left out

T. b. gambiense = assay: Growth inhibition of T. b. gambiense strains; format: cell-based; conditions: Trypanosoma brucei, mean ± SD
[1] = system: T. b. brucei (GVR35-VSL2); assay: Meningoencephalic mouse model (stage 2 HAT efficacy model, GVR35) with bioluminescence imaging; format: in vivo
Protocol: The GVR35 mouse CNS model mimics the second (meningoencephalic) stage of African trypanosomiasis. Female CD1 mice (~8 weeks old, from Charles River) were injected intraperitoneally (i.p.) with 3 × 10^4 T. b. brucei (GVR35-VSL2) bloodstream-form parasites. As controls, a group of three untreated mice and another group of three mice treated with diminazene aceturate (DA) were included. […] Mice treated with DA usually relapse after 42 days post-infection. […]
Blood parasitemia was quantified weekly from day 21/22, by microscopy of blood from the tail vein. Mice were imaged for bioluminescence using an in vivo imaging system (IVIS) prior to treatment on day 21/22, and weekly after treatment, as described previously. Briefly, mice, in groups of three, were injected i.p. with 150 mg of D-luciferin (Promega) per kilogram body weight in PBS and imaged after 10 min, using an IVIS Spectrum (PerkinElmer, Waltham, Massachusetts MA, USA). Living Image Software (PerkinElmer) was used for acquisition and analysis of bioluminescence imaging data. Bioluminescence in the same rectangular region of interest (ROI) on whole-body mouse images was quantified and is shown in total flux (photons per second). Images were cropped to the ROIs and composites of images from representative mice are shown. Uncured mice were euthanized within 1 or 2 days of parasite detection in the blood. Cured mice were euthanized between day 92 and 101 post-infection. All the results from the individual experiments were reported as number of mice cured over total number of mice treated. A Kaplan–Meier plot was used for representing the number of mice cured at different treatment doses.

[2] = stage 2 HAT mouse model; cited from earlier work

CC(C)C[C@H](NC(=O)[C@H](Cc1ccccc1)NC(=O)c1cnccn1)B(O)O [Bortezomib, reference compound]
EC50 (T. brucei PSMB4^WT): 0.94 ± 0.05 nM
Shift in growth inhibition concentration, F24L mutant vs wild-type (T. brucei PSMB4^F24L): equipotent
EC50 (T. brucei PSMB4^F24L; Trypanosoma brucei, read-out: T. brucei PSMB4^F24L EC50): 1.1 ± 0.26 nM

Nc1nc(N)nc(Nc2ccc([As]3SCC(CO)S3)cc2)n1 (stereo not shown) [Melarsoprol, reference compound]
EC50 (T. b. rhodesiense; RHODESIENSE / STIB900, read-out: T. b. rhodesiense EC50, strain STIB900): 3.9 ± 2 nM
EC50 (T. b. rhodesiense; RHODESIENSE / STIB900, read-out: T. b. rhodesiense EC50, strain STIB900 Mel^R (melarsoprol-resistant)): 95.5 ± 24 nM
EC50 (T. b. rhodesiense; RHODESIENSE / STIB900, read-out: T. b. rhodesiense EC50, strain STIB900 Pent^R (pentamidine-resistant)): 46.8 ± 19 nM
EC50 (T. b. brucei; STIB950, read-out: T. b. brucei EC50, strain STIB950): 16.9 ± 8.8 nM
EC50 (T. b. brucei; read-out: T. b. brucei EC50, strain BS221 (P2 KO)): 37.7 ± 14.8 nM
EC50 (T. b. brucei; read-out: T. b. brucei EC50, strain BS221): 4.7 ± 1.8 nM
EC50 (T. b. gambiense; GAMBIENSE / STIB930, read-out: T. b. gambiense EC50, strain STIB930): 7.1 ± 2.7 nM
EC50 (T. b. gambiense; GAMBIENSE, read-out: T. b. gambiense EC50, strain K048): 10.2 ± 1.9 nM
EC50 (T. b. gambiense; GAMBIENSE, read-out: T. b. gambiense EC50, strain R130): 7.7 ± 3.1 nM

N=C(N)c1ccc(/N=N/Nc2ccc(C(=N)N)cc2)cc1 [Diminazene, diminazene aceturate, reference compound]
% Cured ([1]; 40 mg/kg QD): 0%
Mean Day of Relapse ([1]; 40 mg/kg QD): 42 days post infection
Mice Cured/Total ([1]; 40 mg/kg QD (control compound lacking brain penetration)): 0/3

CC1(C)OB(O)c2cc(NC(=O)c3ccc(F)cc3C(F)(F)F)ccc21 [acoziborole]
Curative dose [2]: 25 mg/kg

CSc1ccc(OCc2ncc([N+](=O)[O-])n2C)cc1 [fexinidazole]
Curative dose [2]: 200 mg/kg

N=C(N)c1ccc(OCCCCCOc2ccc(C(=N)N)cc2)cc1 [Pentamidine, reference compound]
EC50 (T. b. rhodesiense; RHODESIENSE / STIB900, strain STIB900 Mel^R (melarsoprol-resistant), read-out: T. b. rhodesiense EC50): 217 ± 86 nM
EC50 (T. b. rhodesiense; RHODESIENSE / STIB900, strain STIB900 Pent^R (pentamidine-resistant), read-out: T. b. rhodesiense EC50): 203 ± 54 nM
EC50 (T. b. brucei; STIB950, strain STIB950, read-out: T. b. brucei EC50): 0.5 ± 0.2 nM
EC50 (T. b. brucei; strain BS221 (P2 KO), read-out: T. b. brucei EC50): 3.1 ± 0.4 nM
EC50 (T. b. brucei; strain BS221, read-out: T. b. brucei EC50): 0.3 ± 0.1 nM
EC50 (T. b. gambiense; GAMBIENSE / STIB930, strain STIB930, read-out: T. b. gambiense EC50): 1.4 ± 0.9 nM
EC50 (T. b. gambiense; GAMBIENSE, strain K048, read-out: T. b. gambiense EC50): 33.9 ± 16 nM
EC50 (T. b. gambiense; GAMBIENSE, strain R130, read-out: T. b. gambiense EC50): 13.5 ± 4 nM
